Reference: paper PMC9658835, “Acetophenone-Based 3,4-Dihydropyrimidine-2(1H)-Thione as Potential Inhibitor of Tyrosinase and Ribonucleotide Reductase: Facile Synthesis, Crystal Structure, In-Vitro and In-Silico Investigations” (International Journal of Molecular Sciences, 2022)

Target: mushroom tyrosinase
Test: mushroom tyrosinase (Sigma) enzyme inhibition assay
Assay type: biochemical

CC(=O)c1ccc(N2C(=S)NC(C)(C)C=C2C)cc1 [compound 4, 1-(4-(4,4,6-trimethyl-2-thioxo-3,4-dihydropyrimidin-1(2H)-yl)phenyl)ethan-1-one]
IC50: 1.98 µM
